In this experiment the test system is P388 leukemia ip, CD2F1 mice, survival T/C. In words: NCI In Vivo Anticancer Drug Screen. Data for tumor model P388 Leukemia (intraperitoneal) in CD2F1 (CDF1) mice. The note with it: endpoint: median survival time, higher = longer survival. Summed up:
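Mice carrying the transplanted tumor received test compound or vehicle. Survival was recorded in each group, and the value is the treated-group measurement divided by that of the vehicle-treated control group.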

The mark [1] stands for this setting: dose: 50.0 mg/kg/injection, schedule: Q01DX009 (ip), vehicle: saline with Tween-80.
The mark [2] stands for this setting: dose: 50.0 mg/kg/injection, schedule: Q01DX009 (ip), vehicle: Klucel (hydroxypropylcellulose) (HPC).
Where [3] appears, read: dose: 100.0 mg/kg/injection, schedule: Q01DX009 (ip), vehicle: Klucel (hydroxypropylcellulose) (HPC).

Where “and” joins values, the source holds several entries; their conditions need not be identical. Equal entries are not always repeated. Toxic doses and inconclusive results are not listed.

On to `C/C=C(\C(=O)OC)C1CC2OC(=O)C1(C=O)C13CCNC21N(C)c1ccccc13` (centres undefined), for which the T/C (dose: 4.5 mg/kg/injection, schedule: Q01DX005 (ip), vehicle: saline + Tween-80 + alcohol) is 104 % of control; the T/C (dose: 9.5 mg/kg/injection, schedule: Q01DX005 (ip), vehicle: saline + Tween-80 + alcohol) is 98 % of control; the T/C (dose: 18.0 mg/kg/injection, schedule: Q01DX005 (ip), vehicle: saline + Tween-80 + alcohol) is 104 % of control; the T/C (dose: 38.0 mg/kg/injection, schedule: Q01DX005 (ip), vehicle: saline + Tween-80 + alcohol) is 98 % of control.
As for `Cc1ccccc1N1C(=O)CSC1=S`, the T/C by setting is: (dose: 12.5 mg/kg/injection, schedule: Q01DX009 (ip), vehicle: saline with Tween-80) 105 % of control; (dose: 25.0 mg/kg/injection, schedule: Q01DX009 (ip), vehicle: saline with Tween-80) 95 % of control; under setting [1], 105 % of control.
With `COCC(O)Cn1ccnc1[N+](=O)[O-]` (centres undefined), the T/C by setting is: (dose: 1.0 mg/kg/injection, schedule: Q01DX009 (ip), vehicle: saline + alcohol) 100 % of control; (dose: 1.0 mg/kg/injection, schedule: Q01DX009 (ip), vehicle: saline) 104 % of control; (dose: 2.0 mg/kg/injection, schedule: Q01DX009 (ip), vehicle: saline + alcohol) 98 % of control; (dose: 2.0 mg/kg/injection, schedule: Q01DX009 (ip), vehicle: saline) 109 % of control; (dose: 4.0 mg/kg/injection, schedule: Q01DX009 (ip), vehicle: saline) 120 % of control; (dose: 8.0 mg/kg/injection, schedule: Q01DX009 (ip), vehicle: saline) 111 % of control. Moreover, the T/C by setting is: (dose: 16.0 mg/kg/injection, schedule: Q01DX009 (ip), vehicle: saline) 108 % of control; (dose: 32.0 mg/kg/injection, schedule: Q01DX009 (ip), vehicle: saline) 112 % of control; (dose: 64.0 mg/kg/injection, schedule: Q01DX009 (ip), vehicle: saline + alcohol) 124 % of control; (dose: 64.0 mg/kg/injection, schedule: Q01DX009 (ip), vehicle: saline) 102 % of control; (dose: 128.0 mg/kg/injection, schedule: Q01DX009 (ip), vehicle: saline + alcohol) 98 % of control; (dose: 128.0 mg/kg/injection, schedule: Q01DX009 (ip), vehicle: saline) 111 % of control. In addition, the T/C reads like this: (dose: 250.0 mg/kg/injection, schedule: Q01DX001 (ip), vehicle: saline + alcohol) 97 % of control; (dose: 256.0 mg/kg/injection, schedule: Q01DX009 (ip), vehicle: saline + alcohol) 91 % of control; (dose: 256.0 mg/kg/injection, schedule: Q01DX009 (ip), vehicle: saline) 111 % of control; (dose: 500.0 mg/kg/injection, schedule: Q01DX001 (ip), vehicle: saline + alcohol) 100 % of control; (dose: 512.0 mg/kg/injection, schedule: Q01DX009 (ip), vehicle: saline) 112 % of control; (dose: 600.0 mg/kg/injection, schedule: Q01DX005 (ip), vehicle: saline) 114 % of control. Moreover, the T/C is 102 % of control (dose: 1000.0 mg/kg/injection, schedule: Q01DX001 (ip), vehicle: saline + alcohol); 105 % of control (dose: 1000.0 mg/kg/injection, schedule: Q01DX005 (ip), vehicle: saline); 66 % of control (dose: 2000.0 mg/kg/injection, schedule: Q01DX001 (ip), vehicle: saline + alcohol).
For `CCC1=CCCN(Cc2ccccc2)C1C#N` (centres undefined), the T/C by setting is: (dose: 7.5 mg/kg/injection, schedule: Q01DX005 (ip), vehicle: Klucel (hydroxypropylcellulose) (HPC)) 106 % of control; (dose: 15.0 mg/kg/injection, schedule: Q01DX005 (ip), vehicle: Klucel (hydroxypropylcellulose) (HPC)) 111 % of control; (dose: 30.0 mg/kg/injection, schedule: Q01DX005 (ip), vehicle: Klucel (hydroxypropylcellulose) (HPC)) 118 % of control.
For the compound `COC(=O)C1=CSCCC1=O`, the T/C (dose: 50.0 mg/kg/injection, schedule: Q01DX005 (ip), vehicle: Klucel (hydroxypropylcellulose) (HPC)) is 105 % of control; the T/C (dose: 100.0 mg/kg/injection, schedule: Q01DX005 (ip), vehicle: Klucel (hydroxypropylcellulose) (HPC)) is 106 % of control; the T/C (dose: 200.0 mg/kg/injection, schedule: Q01DX005 (ip), vehicle: Klucel (hydroxypropylcellulose) (HPC)) was 117 % of control.
`Cc1cc(C)c2ccc(NN=O)nc2n1`: the T/C reads like this: (dose: 3.12 mg/kg/injection, schedule: Q01DX009 (ip), vehicle: water) 118 % of control; (dose: 12.5 mg/kg/injection, schedule: Q01DX009 (ip), vehicle: water) 163 % of control; (dose: 25.0 mg/kg/injection, schedule: Q01DX009 (ip), vehicle: water) 167 % of control and 169 % of control.
On to `O=S(=O)(c1ccc(NC(=S)N/N=C/c2ccccc2O)cc1)N1CCCCC1`, for which the T/C is, setting by setting: (dose: 12.5 mg/kg/injection, schedule: Q01DX009 (ip), vehicle: olive oil, sesame oil, peanut oil) 105 % of control; (dose: 25.0 mg/kg/injection, schedule: Q01DX009 (ip), vehicle: olive oil, sesame oil, peanut oil) 96 % of control; (dose: 50.0 mg/kg/injection, schedule: Q01DX009 (ip), vehicle: olive oil, sesame oil, peanut oil) 96 % of control; (dose: 100.0 mg/kg/injection, schedule: Q01DX009 (ip), vehicle: olive oil, sesame oil, peanut oil) 91 % of control; (dose: 200.0 mg/kg/injection, schedule: Q01DX009 (ip), vehicle: olive oil, sesame oil, peanut oil) 91 % of control; (dose: 400.0 mg/kg/injection, schedule: Q01DX009 (ip), vehicle: olive oil, sesame oil, peanut oil) 97 % of control.
Consider `Cc1ccc(NCCN(C)C)c2c(=O)c3cc(O)ccc3sc12`, for which the T/C is 103 % of control (dose: 1.0 mg/kg/injection, schedule: Q01DX009 (ip), vehicle: saline with Tween-80); 180 % of control (dose: 8.0 mg/kg/injection, schedule: Q01DX009 (ip), vehicle: Klucel (hydroxypropylcellulose) (HPC)); 170 % of control (dose: 16.0 mg/kg/injection, schedule: Q01DX009 (ip), vehicle: Klucel (hydroxypropylcellulose) (HPC)); 151 % of control (dose: 16.0 mg/kg/injection, schedule: Q01DX009 (ip), vehicle: saline with Tween-80); 191 % of control (dose: 32.0 mg/kg/injection, schedule: Q01DX009 (ip), vehicle: Klucel (hydroxypropylcellulose) (HPC)); 157 % of control (dose: 32.0 mg/kg/injection, schedule: Q01DX009 (ip), vehicle: saline with Tween-80). For the same compound, the T/C by setting is: (dose: 37.0 mg/kg/injection, schedule: Q01DX009 (ip), vehicle: Klucel (hydroxypropylcellulose) (HPC)) 97 % of control; under setting [2], 234 % of control; (dose: 64.0 mg/kg/injection, schedule: Q01DX009 (ip), vehicle: Klucel (hydroxypropylcellulose) (HPC)) 265 % of control; under setting [3], 87 % of control.
Take `[N-]=[N+]=CC(=O)CCCCC1=CCCC1=O`: the T/C was 103 % of control (dose: 31.75 mg/kg/injection, schedule: Q01DX001 (ip), vehicle: saline with Tween-80); 93 % of control (dose: 63.5 mg/kg/injection, schedule: Q01DX001 (ip), vehicle: saline with Tween-80); 94 % of control (dose: 127.0 mg/kg/injection, schedule: Q01DX001 (ip), vehicle: saline with Tween-80).
As for `Cc1ccc(O)c(C2CC(=O)NC(N)=N2)c1` (centres undefined), the T/C is, setting by setting: (dose: 50.0 mg/kg/injection, schedule: Q01DX009 (ip), vehicle: saline) 110 % of control; (dose: 100.0 mg/kg/injection, schedule: Q01DX009 (ip), vehicle: saline) 101 % of control; (dose: 200.0 mg/kg/injection, schedule: Q01DX009 (ip), vehicle: saline) 104 % of control.
`Cc1noc2c1N=C(c1ccccc1)CC(c1ccccc1)C2` (centres undefined): the T/C was 104 % of control (dose: 25.0 mg/kg/injection, schedule: Q01DX009 (ip), vehicle: Klucel (hydroxypropylcellulose) (HPC)); 104 % of control and 111 % of control under setting [2]; 109 % of control under setting [3]; 109 % of control (dose: 200.0 mg/kg/injection, schedule: Q01DX009 (ip), vehicle: Klucel (hydroxypropylcellulose) (HPC)).
In the case of `OC1(C(F)(F)F)NN2C=CC=CC2=NO1` (centres undefined), the T/C is 95 % of control (dose: 60.0 mg/kg/injection, schedule: Q01DX005 (ip), vehicle: saline with Tween-80); 96 % of control (dose: 120.0 mg/kg/injection, schedule: Q01DX005 (ip), vehicle: saline with Tween-80); 100 % of control (dose: 240.0 mg/kg/injection, schedule: Q01DX005 (ip), vehicle: saline with Tween-80).
Turning to `C#CC(CC)(CC)N=Cc1cc(Cl)cc(Cl)c1O`, the T/C was 98 % of control under setting [1]; 94 % of control (dose: 100.0 mg/kg/injection, schedule: Q01DX009 (ip), vehicle: saline with Tween-80); 96 % of control (dose: 200.0 mg/kg/injection, schedule: Q01DX009 (ip), vehicle: saline with Tween-80).
